How the values were obtained:
[1] = molecular target: Calcium/calmodulin-dependent protein kinase type II subunit delta (Homo sapiens) (UniProt Q13557); experiment: CAMK2D SGC Tm panel (DSF); settings: for ΔTm: Compound concentration 10.0 uM
[2] = molecular target: T1, Ribosyldihydronicotinamide dehydrogenase [quinone] (Homo sapiens) (UniProt P16083); experiment: NQO2 SGC Tm panel (DSF); settings: for ΔTm: Compound concentration 10.0 uM
T1 sequence (whole entry): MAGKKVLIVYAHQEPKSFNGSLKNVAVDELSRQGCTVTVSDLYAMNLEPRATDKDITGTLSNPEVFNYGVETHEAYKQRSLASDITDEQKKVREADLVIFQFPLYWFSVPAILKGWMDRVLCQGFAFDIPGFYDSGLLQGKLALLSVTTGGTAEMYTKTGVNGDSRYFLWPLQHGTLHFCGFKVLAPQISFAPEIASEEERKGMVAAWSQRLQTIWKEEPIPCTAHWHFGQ

[3] = molecular target: Mitogen-activated protein kinase 14 (Homo sapiens) (UniProt Q16539); experiment: MAPK14 SGC Tm panel (DSF); settings: for ΔTm: Compound concentration 10.0 uM
[4] = molecular target: Calcium/calmodulin-dependent protein kinase kinase 2 (Homo sapiens) (UniProt Q96RR4); experiment: CAMKK2 SGC Tm panel (DSF); settings: for ΔTm: Compound concentration 10.0 uM
[5] = molecular target: Casein kinase I isoform delta (Homo sapiens) (UniProt P48730); experiment: CSNK1D SGC Tm panel (DSF); settings: for ΔTm: Compound concentration 10.0 uM
[6] = molecular target: Fibroblast growth factor receptor 2 (Homo sapiens) (UniProt P21802); experiment: FGFR2 SGC Tm panel (DSF); settings: for ΔTm: Compound concentration 10.0 uM
[7] = molecular target: Membrane-associated tyrosine- and threonine-specific cdc2-inhibitory kinase (Homo sapiens) (UniProt Q99640); experiment: PKMYT1 SGC Tm panel (DSF); settings: Compound concentration 10.0 uM
[8] = molecular target: T2, Serine/threonine-protein kinase 4 (Homo sapiens) (UniProt Q13043); experiment: STK4 SGC Tm panel (DSF); settings: for ΔTm: Compound concentration 10.0 uM
T2 sequence (whole entry): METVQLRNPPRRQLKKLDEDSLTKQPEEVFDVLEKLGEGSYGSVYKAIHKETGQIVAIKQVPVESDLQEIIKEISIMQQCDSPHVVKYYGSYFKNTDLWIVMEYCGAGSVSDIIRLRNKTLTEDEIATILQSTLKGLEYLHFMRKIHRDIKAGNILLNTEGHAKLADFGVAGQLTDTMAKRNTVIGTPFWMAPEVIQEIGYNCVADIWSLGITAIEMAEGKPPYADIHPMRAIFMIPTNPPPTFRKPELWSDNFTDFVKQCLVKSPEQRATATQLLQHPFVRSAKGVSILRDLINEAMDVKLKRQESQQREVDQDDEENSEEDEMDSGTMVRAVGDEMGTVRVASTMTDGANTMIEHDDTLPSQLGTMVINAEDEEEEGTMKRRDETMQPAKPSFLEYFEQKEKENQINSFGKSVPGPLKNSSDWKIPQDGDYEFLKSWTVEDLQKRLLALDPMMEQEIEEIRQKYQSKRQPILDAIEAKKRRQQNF

[9] = molecular target: Dual specificity protein kinase CLK1 (Homo sapiens) (UniProt P49759); experiment: CLK1 SGC Tm panel (DSF); settings: for ΔTm: Compound concentration 10.0 uM
[10] = molecular target: 5-hydroxytryptamine receptor 2C (Homo sapiens) (UniProt P28335); settings: Compound concentration 10.0 uM
[11] = molecular target: G protein-coupled receptor kinase 5 (Homo sapiens) (UniProt P34947); experiment: GPRK5 SGC Tm panel (DSF); settings: for ΔTm: Compound concentration 10.0 uM
[12] = molecular target: D(4) dopamine receptor (Homo sapiens) (UniProt P21917); settings: Compound concentration 10.0 uM
[13] = molecular target: Serine/threonine-protein kinase 24 (Homo sapiens) (UniProt Q9Y6E0); experiment: MST3 SGC Tm panel (DSF); settings: for ΔTm: Compound concentration 10.0 uM
[14] = molecular target: Alpha-2A adrenergic receptor (Homo sapiens) (UniProt P08913); settings: Compound concentration 10.0 uM
[15] = molecular target: Ribosomal protein S6 kinase alpha-5 (Homo sapiens) (UniProt O75582); experiment: RPS6KA5 SGC Tm panel (DSF); settings: for ΔTm: Compound concentration 10.0 uM
[16] = molecular target: 5-hydroxytryptamine receptor 2A (Homo sapiens) (UniProt P28223); settings: Compound concentration 10.0 uM
[17] = molecular target: D(3) dopamine receptor (Homo sapiens) (UniProt P35462); settings: Compound concentration 10.0 uM
[18] = molecular target: Dual specificity protein kinase CLK3 (Homo sapiens) (UniProt P49761); experiment: CLK3 SGC Tm panel (DSF); settings: for ΔTm: Compound concentration 10.0 uM
[19] = molecular target: Casein kinase II subunit alpha (Homo sapiens) (UniProt P68400); experiment: CSNK2A1A SGC Tm panel (DSF); settings: for ΔTm: Compound concentration 10.0 uM
[20] = molecular target: Sodium-dependent noradrenaline transporter (Homo sapiens, UniProt P23975); settings: Compound concentration 10.0 uM
[21] = molecular target: Calcium/calmodulin-dependent protein kinase type 1D (Homo sapiens) (UniProt Q8IU85); experiment: CAMK1D SGC Tm panel (DSF); settings: for ΔTm: Compound concentration 10.0 uM
[22] = molecular target: MAP/microtubule affinity-regulating kinase 3 (Homo sapiens) (UniProt P27448); experiment: MARK3 SGC Tm panel (DSF); settings: for ΔTm: Compound concentration 10.0 uM
[23] = molecular target: STE20/SPS1-related proline-alanine-rich protein kinase (Homo sapiens) (UniProt Q9UEW8); experiment: STK39 SGC Tm panel (DSF); settings: for ΔTm: Compound concentration 10.0 uM
[24] = molecular target: 5-hydroxytryptamine receptor 3A (Homo sapiens) (UniProt P46098); settings: Compound concentration 10.0 uM
[25] = molecular target: Alpha-1D adrenergic receptor (Homo sapiens) (UniProt P25100); settings: Compound concentration 10.0 uM
[26] = molecular target: Serine/threonine-protein kinase B-raf (Homo sapiens) (UniProt P15056); experiment: BRAF SGC Tm panel (DSF); settings: for ΔTm: Compound concentration 10.0 uM
[27] = molecular target: Muscarinic acetylcholine receptor M5 (Homo sapiens) (UniProt P08912); settings: Compound concentration 10.0 uM
[28] = molecular target: Ephrin type-A receptor 4 (Homo sapiens) (UniProt P54764); experiment: EPHA4 SGC Tm panel (DSF); settings: for ΔTm: Compound concentration 10.0 uM
[29] = molecular target: Alpha-2B adrenergic receptor (Homo sapiens) (UniProt P18089); settings: Compound concentration 10.0 uM
[30] = molecular target: 5-hydroxytryptamine receptor 5A (Homo sapiens) (UniProt P47898); settings: Compound concentration 10.0 uM
[31] = molecular target: Cyclin-dependent kinase 2 (Homo sapiens) (UniProt P24941); experiment: CDK2 SGC Tm panel (DSF); settings: for ΔTm: Compound concentration 10.0 uM
[32] = molecular target: 5-hydroxytryptamine receptor 1A (Homo sapiens) (UniProt P08908); settings: Compound concentration 10.0 uM

Sequence of Mitogen-activated protein kinase 14 (Homo sapiens) (Q16539 whole entry): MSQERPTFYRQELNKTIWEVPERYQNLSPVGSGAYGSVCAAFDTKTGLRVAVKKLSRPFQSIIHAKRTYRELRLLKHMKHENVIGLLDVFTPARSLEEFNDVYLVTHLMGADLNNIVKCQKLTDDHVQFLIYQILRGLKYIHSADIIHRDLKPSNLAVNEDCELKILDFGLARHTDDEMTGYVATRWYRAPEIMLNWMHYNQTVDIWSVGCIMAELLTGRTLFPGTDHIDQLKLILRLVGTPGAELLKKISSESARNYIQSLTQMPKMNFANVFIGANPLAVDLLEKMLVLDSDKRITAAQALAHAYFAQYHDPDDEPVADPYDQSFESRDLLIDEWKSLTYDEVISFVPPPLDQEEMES
Sequence of Serine/threonine-protein kinase B-raf (Homo sapiens) (P15056 whole entry): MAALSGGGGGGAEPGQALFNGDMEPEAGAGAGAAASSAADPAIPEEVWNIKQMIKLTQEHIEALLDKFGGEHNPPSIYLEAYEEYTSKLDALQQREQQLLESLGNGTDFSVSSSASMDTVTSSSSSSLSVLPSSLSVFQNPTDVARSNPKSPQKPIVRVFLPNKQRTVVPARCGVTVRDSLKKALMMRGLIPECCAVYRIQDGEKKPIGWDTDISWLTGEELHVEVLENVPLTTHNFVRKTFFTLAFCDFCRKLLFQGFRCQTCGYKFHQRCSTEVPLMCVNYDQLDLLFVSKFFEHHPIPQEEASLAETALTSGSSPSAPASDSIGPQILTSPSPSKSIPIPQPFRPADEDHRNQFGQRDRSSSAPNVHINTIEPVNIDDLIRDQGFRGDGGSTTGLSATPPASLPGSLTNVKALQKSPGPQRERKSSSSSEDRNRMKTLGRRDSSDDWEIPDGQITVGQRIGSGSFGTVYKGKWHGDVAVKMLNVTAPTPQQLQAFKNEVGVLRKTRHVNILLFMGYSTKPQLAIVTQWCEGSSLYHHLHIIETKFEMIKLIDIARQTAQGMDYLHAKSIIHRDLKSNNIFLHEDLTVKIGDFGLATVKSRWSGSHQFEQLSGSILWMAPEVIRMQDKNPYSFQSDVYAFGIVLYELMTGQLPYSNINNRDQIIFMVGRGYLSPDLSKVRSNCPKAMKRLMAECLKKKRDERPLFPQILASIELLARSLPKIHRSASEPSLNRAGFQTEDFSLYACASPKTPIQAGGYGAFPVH
Sequence of Dual specificity protein kinase CLK3 (Homo sapiens) (P49761 whole entry, looked up): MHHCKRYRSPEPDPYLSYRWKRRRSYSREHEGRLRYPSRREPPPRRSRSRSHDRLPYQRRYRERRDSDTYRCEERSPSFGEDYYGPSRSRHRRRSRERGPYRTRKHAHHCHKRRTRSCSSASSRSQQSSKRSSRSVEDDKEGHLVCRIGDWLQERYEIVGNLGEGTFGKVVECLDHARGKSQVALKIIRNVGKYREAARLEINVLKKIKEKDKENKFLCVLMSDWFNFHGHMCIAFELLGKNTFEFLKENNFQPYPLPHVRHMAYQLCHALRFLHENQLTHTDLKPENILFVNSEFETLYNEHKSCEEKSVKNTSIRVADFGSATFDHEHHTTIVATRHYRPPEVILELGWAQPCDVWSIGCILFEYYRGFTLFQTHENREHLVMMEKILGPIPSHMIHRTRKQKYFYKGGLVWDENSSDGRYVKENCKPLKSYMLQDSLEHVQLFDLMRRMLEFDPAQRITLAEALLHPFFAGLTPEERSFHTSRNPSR
Sequence of Calcium/calmodulin-dependent protein kinase type II subunit delta (Homo sapiens) (Q13557 whole entry): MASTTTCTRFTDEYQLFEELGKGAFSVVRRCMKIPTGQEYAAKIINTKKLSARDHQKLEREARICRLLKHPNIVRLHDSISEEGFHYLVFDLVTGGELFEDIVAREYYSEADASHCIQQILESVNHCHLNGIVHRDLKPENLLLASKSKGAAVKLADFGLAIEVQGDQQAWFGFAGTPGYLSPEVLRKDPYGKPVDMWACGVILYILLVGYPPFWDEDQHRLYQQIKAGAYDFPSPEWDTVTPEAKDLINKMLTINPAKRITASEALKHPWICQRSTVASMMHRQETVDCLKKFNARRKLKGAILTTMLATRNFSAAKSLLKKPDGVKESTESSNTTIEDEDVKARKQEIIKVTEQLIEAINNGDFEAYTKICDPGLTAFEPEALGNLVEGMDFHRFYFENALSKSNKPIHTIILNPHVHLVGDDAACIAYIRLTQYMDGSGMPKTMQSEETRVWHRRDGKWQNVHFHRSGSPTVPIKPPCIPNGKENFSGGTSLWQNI
Sequence of Calcium/calmodulin-dependent protein kinase kinase 2 (Homo sapiens) (Q96RR4 2-588 limits assumed): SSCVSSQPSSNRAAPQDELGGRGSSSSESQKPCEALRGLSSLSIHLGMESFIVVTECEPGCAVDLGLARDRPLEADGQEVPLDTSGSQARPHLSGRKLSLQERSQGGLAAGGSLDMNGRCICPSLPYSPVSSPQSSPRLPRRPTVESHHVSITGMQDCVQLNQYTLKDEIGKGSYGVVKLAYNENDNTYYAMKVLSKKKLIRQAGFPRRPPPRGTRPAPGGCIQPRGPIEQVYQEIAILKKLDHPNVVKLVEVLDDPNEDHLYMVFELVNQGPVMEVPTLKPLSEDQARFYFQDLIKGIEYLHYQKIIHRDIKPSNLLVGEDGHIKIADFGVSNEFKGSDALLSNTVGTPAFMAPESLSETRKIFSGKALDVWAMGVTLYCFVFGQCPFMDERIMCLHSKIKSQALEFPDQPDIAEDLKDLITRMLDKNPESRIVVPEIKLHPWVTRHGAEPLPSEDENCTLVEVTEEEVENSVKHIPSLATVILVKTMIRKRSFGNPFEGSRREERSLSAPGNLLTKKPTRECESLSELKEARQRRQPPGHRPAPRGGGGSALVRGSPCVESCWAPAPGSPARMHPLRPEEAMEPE
Sequence of Casein kinase II subunit alpha (Homo sapiens) (P68400 whole entry, looked up): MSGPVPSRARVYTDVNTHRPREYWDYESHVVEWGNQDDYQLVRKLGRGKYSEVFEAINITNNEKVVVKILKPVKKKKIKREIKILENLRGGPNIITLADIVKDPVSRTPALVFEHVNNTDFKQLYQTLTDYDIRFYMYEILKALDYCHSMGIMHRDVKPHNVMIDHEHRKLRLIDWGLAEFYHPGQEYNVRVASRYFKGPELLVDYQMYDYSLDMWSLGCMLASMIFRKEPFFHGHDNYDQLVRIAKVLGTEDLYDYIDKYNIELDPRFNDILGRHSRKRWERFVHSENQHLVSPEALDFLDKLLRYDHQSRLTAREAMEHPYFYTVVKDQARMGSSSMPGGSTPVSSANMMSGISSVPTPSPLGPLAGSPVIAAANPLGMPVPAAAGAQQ
Sequence of Ribosomal protein S6 kinase alpha-5 (Homo sapiens) (O75582 whole entry, looked up): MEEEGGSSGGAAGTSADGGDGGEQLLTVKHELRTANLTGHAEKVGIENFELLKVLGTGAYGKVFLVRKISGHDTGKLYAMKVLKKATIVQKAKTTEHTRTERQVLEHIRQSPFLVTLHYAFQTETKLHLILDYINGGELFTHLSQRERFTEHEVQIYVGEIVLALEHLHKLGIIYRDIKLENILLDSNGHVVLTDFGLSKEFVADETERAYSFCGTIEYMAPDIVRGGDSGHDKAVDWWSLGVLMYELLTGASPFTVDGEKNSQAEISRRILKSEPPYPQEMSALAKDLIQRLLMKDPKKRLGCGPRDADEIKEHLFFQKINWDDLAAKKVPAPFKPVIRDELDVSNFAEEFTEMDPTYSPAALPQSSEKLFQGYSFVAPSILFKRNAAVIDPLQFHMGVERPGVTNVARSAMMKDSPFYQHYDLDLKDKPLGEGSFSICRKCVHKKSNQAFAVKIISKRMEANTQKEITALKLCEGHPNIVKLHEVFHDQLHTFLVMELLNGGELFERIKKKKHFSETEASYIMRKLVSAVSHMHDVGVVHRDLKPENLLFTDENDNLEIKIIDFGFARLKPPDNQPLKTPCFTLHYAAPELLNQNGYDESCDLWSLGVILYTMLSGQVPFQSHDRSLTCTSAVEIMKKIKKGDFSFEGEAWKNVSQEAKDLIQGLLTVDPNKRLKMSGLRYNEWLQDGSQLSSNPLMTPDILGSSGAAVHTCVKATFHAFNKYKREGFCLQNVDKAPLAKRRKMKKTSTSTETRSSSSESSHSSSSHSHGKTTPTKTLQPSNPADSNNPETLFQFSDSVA
Sequence of Calcium/calmodulin-dependent protein kinase type 1D (Homo sapiens) (Q8IU85 whole entry, looked up): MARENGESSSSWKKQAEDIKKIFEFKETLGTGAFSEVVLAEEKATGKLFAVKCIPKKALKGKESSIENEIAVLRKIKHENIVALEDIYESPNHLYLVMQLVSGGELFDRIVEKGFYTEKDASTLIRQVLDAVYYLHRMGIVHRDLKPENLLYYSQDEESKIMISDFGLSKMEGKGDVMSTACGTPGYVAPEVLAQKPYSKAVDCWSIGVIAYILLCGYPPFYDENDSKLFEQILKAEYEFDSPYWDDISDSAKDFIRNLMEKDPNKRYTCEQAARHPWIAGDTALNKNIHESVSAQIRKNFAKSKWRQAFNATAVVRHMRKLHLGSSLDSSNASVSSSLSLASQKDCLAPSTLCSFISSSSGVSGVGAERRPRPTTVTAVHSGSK
Sequence of Serine/threonine-protein kinase 24 (Homo sapiens) (Q9Y6E0 whole entry, looked up): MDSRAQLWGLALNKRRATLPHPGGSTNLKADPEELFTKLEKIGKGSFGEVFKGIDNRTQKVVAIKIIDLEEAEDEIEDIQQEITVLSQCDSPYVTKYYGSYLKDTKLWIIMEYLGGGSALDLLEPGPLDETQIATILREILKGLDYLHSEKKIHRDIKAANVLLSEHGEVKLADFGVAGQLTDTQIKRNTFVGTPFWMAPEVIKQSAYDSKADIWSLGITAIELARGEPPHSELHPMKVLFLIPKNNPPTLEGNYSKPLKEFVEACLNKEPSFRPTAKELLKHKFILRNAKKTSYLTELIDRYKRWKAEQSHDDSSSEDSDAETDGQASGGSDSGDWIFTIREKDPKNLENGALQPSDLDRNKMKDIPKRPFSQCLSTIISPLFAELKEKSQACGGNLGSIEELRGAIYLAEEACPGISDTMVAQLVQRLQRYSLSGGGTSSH

`COC[C@H](NC(=O)c1ccn(S(C)(=O)=O)c1)C(=O)Nc1nc(-c2cccc(-c3ccn(C)n3)c2)cs1` showed a delta Tm Staurosporine positive control [1] of 16, a ΔTm [1] of 0.157 and a delta Tm Staurosporine positive control [2] of -2.91. For the same compound, the ΔTm [2] was -0.772, the delta Tm Staurosporine positive control [3] was 1.14 and the ΔTm [3] was -0.0969. For the same compound, the delta Tm Staurosporine positive control [4] was 24.4, the ΔTm [4] was 0.325 and the delta Tm Staurosporine positive control [5] was 1.43. It also gave a ΔTm [5] of 0.637, a delta Tm Staurosporine positive control [6] of 8.53 and a ΔTm [6] of 0.294. It also gave a ΔTm [7] of -0.638, a delta Tm Staurosporine positive control [8] of 14.2 and a ΔTm [8] of 0. For the same compound, the delta Tm Staurosporine positive control [9] was 10.9, the ΔTm [9] was 0.489 and the inhibition [10] was 14.2%. It also gave a delta Tm Staurosporine positive control [11] of 6.82, a ΔTm [11] of 0.544 and an inhibition [12] of 1.52%. The delta Tm Staurosporine positive control [13] was 6.74, the ΔTm [13] was -5.55 and the inhibition [14] was 5.84%. It also gave a delta Tm Staurosporine positive control [15] of 13.1, a ΔTm [15] of 1.16 and an inhibition [16] of 4.18%. It also gave an inhibition [17] of 13%, a delta Tm Staurosporine positive control [18] of 4.89 and a ΔTm [18] of -0.362. For the same compound, the delta Tm Staurosporine positive control [19] was 2.85, the ΔTm [19] was -0.131 and the inhibition [20] was 45.5%. The delta Tm Staurosporine positive control [21] was 10.8, the ΔTm [21] was 0.174 and the delta Tm Staurosporine positive control [22] was 19.1. For the same compound, the ΔTm [22] was 1.12, the delta Tm Staurosporine positive control [23] was 8.57 and the ΔTm [23] was 0.181. It also gave an inhibition [24] of 5.62%, an inhibition [25] of 30.4% and a delta Tm Staurosporine positive control [26] of 0.63. The ΔTm [26] was -0.0136, the inhibition [27] was 0.52% and the delta Tm Staurosporine positive control [28] was 6.89. The ΔTm [28] was 1.06, the inhibition [29] was 6.88% and the inhibition [30] was 11.2%. The delta Tm Staurosporine positive control [31] was 15.5, the ΔTm [31] was 0.601 and the inhibition [32] was 29.7%.

`C[C@H](NC(=O)c1cn(C2(C#N)CC2)cn1)C(=O)Nc1nc(-c2cccc(-c3ccn(C)n3)c2)cs1` was tested, and the delta Tm Staurosporine positive control [1] was 16, the ΔTm [1] was 0.121 and the delta Tm Staurosporine positive control [2] was -2.91. The ΔTm [2] was -0.586, the delta Tm Staurosporine positive control [3] was 1.14 and the ΔTm [3] was -0.0712. It also gave a delta Tm Staurosporine positive control [4] of 24.4, a ΔTm [4] of 0.609 and a delta Tm Staurosporine positive control [5] of 1.43. The ΔTm [5] was 0.845, the delta Tm Staurosporine positive control [6] was 8.53 and the ΔTm [6] was 0.191. It also gave a ΔTm [7] of -0.216, a delta Tm Staurosporine positive control [8] of 14.2 and a ΔTm [8] of 0. For the same compound, the delta Tm Staurosporine positive control [9] was 10.9, the ΔTm [9] was 0.522 and the inhibition [10] was 18.3%. For the same compound, the delta Tm Staurosporine positive control [11] was 6.82, the ΔTm [11] was 0.226 and the inhibition [12] was 6.59%. For the same compound, the delta Tm Staurosporine positive control [13] was 6.74, the ΔTm [13] was -1.99 and the inhibition [14] was 10.5%. For the same compound, the delta Tm Staurosporine positive control [15] was 13.1, the ΔTm [15] was -0.0945 and the inhibition [16] was -5.53%. For the same compound, the inhibition [17] was 28.2%, the delta Tm Staurosporine positive control [18] was 4.89 and the ΔTm [18] was -0.347. It also gave a delta Tm Staurosporine positive control [19] of 2.85, a ΔTm [19] of 0.0573 and an inhibition [20] of 69.8%. The delta Tm Staurosporine positive control [21] was 10.8, the ΔTm [21] was 0.455 and the delta Tm Staurosporine positive control [22] was 19.1. It also gave a ΔTm [22] of 1.73, a delta Tm Staurosporine positive control [23] of 8.57 and a ΔTm [23] of 0.258. For the same compound, the inhibition [24] was 3.44%, the inhibition [25] was 42% and the delta Tm Staurosporine positive control [26] was 0.63. For the same compound, the ΔTm [26] was -0.0339, the inhibition [27] was 4.67% and the delta Tm Staurosporine positive control [28] was 6.89. For the same compound, the ΔTm [28] was 1.22, the inhibition [29] was 14.6% and the inhibition [30] was 13.9%. For the same compound, the delta Tm Staurosporine positive control [31] was 15.5, the ΔTm [31] was 0.352 and the inhibition [32] was 23%.

Source: ChEMBL document CHEMBL5303766, “Data for DCP probe FHT-2344” (2022)
